# Source: PMC10993450, “New benzimidazole derivative compounds with in vitro fasciolicidal properties” (Parasites & Vectors, 2024)
# Where “and” joins values, the source holds several entries; their conditions need not be identical. Identical values can stand only once.
# Tests used:
# [1] = test system: Fasciola hepatica eggs (ABZ-resistant isolate); assay: Egg hatch test (EHT), ABZ-resistant isolate; assay type: cell-based; details: ABZ at discriminant dose (DD) 0.5 µM
# Text: (§1) F. hepatica eggs were recovered after washing the gallbladder of three naturally infected sheep belonging to a flock suspected to be resistant to ABZ. From these eggs, metacercariae were produced at the Centro de Investigaciones de Mabegondo (AGACAL, Xunta de Galicia, Spain) following a previous protocol. These metacercariae were used to infect eight sheep with a dose of 200 metacercariae. The infection was confirmed individually 3 months after the infection by coprological analysis using a sedimentation technique. At that point, sheep were randomly located in two groups of four animals: one treated with a therapeutic dose of ABZ (7.5 mg/kg) and the other one only with water, as control group. To assess the efficacy of ABZ in this isolate, all sheep were humanely euthanized by an intravenous administration of a lethal dose of sodium pentobarbital (Dolethal®, Vetoquinol, Spain) 2 weeks later for fluke recovery and counting. Afterwards, the in vivo efficacy of ABZ was calculated as the percentage of adult worm reduction compared with the untreated control. Additionally, the number of eggs per gram of feces (EPG) was estimated on the treatment day (mentioned as day 0) and 14 days later to determine drug efficacy by means of the fecal egg count reduction test (FECRT).
# During the necropsy, gallbladders from sheep belonging to the untreated group were taken to collect the eggs and carry out the in vitro EHT, while flukes collected from livers were used to conduct the adult viability test (AVT).
# Those BZDs with an activity higher than 80% at a concentration of 10 µM were also screened on eggs and adults from the ABZ resistant isolate.
# (§2) The in vitro EHT described in the current study was based on previous studies. Briefly, 100–120 eggs were incubated in 990 µL of water and 10 μL of each working solution at 25 °C in the dark for a period of 12 h. After incubation, eggs were gently washed with tap water three times to facilitate compound removal and kept in darkness at 25 °C for 14 days. After this period, eggs were exposed to light for 2 h to stimulate the hatching of eggs. Then, hatched and unhatched eggs were evaluated and counted using an optical microscope. The term “hatched eggs” includes both hatched and embryonated eggs. Negative control eggs were incubated with 10 μL of DMSO in 990 μL of water, reaching a maximum DMSO concentration of 1% (v/v), while ABZ at 0.5 µM was used as positive control. Each compound at a specific concentration was tested in triplicate in the same EHT and repeated at least two different days.
# (§3) The efficacy of each compound and drug was calculated as its ovicidal activity following the formula below: Ovicidal activity%=100×%eggs hatched in negative control-%egg hatched after drug incubation/%egg hatched in control.
# [2] = test system: Fasciola hepatica (resistant isolate); assay: In vivo efficacy of ABZ in sheep infected with the resistant isolate (worm count, FECRT); details: ABZ 7.5 mg/kg
# Text: as §1, with “To assess the efficacy of ABZ in this isolate, all sheep were humanely euthanized by an intravenous administration of a lethal dose of sodium pentobarbital (Dolethal®, Vetoquinol, Spain) 2 weeks later for fluke recovery and counting.” left out, “Additionally, the number of eggs per gram of feces (EPG) was estimated on the treatment day (mentioned as day 0) and 14 days later to determine drug efficacy by means of the fecal egg count reduction test (FECRT).” left out
# The percentage of in vivo efficacy of ABZ and the FECRT were calculated using the following formulas, respectively: %of Worm Reduction=100×Mean of adult worms in control group-Mean of adult worms in treated group/Mean of adult worms in control group. %FECRT=100×Arithmetic mean EPG day0-Arithmetic mean EPG day 14/Arithmetic mean EPG day0.
# [3] = test system: Fasciola hepatica eggs (ABZ-susceptible isolate); assay: Egg hatch test (EHT), ABZ-susceptible isolates; assay type: cell-based; details: for % Ovicidal activity: ABZ-susceptible isolate
# Experimental: Eggs were recovered from gallbladders of cattle naturally infected with F. hepatica at the municipal slaughterhouse of León (Spain). For this, the bile of the gallbladders was filtered through sieves of different diameter size pores (500, 150, and 20 µm) using pressurized tap water. Eggs retained on the 20 µm pore size sieve were collected and stored at 4 °C in darkness until required within a maximum period of 2 months.
# The susceptibility of the isolates to ABZ was confirmed by the egg hatch test (EHT) using an ABZ discriminant dose (DD) of 0.5 µM [23]. The technique is described in more detail below.
# The in vitro anthelmintic activity of a total of 70 BZDs was initially tested on F. hepatica eggs recovered from gallbladders of cattle naturally infected with ABZ-susceptible isolates. The first screening was performed using a fixed concentration of 50 µM. […] Therefore, only BZDs with ovicidal activities over 80% progressed to the next assays at 10 µM. […] At this last concentration, the ovicidal effect of ABZ, ABZSO, and OXF was also evaluated.
# as §2
# With the aim to characterize the susceptibility of isolates from naturally infected cattle, the drug used in the EHT was ABZ, tested at a discriminant dose of 0.5 μM. Drug susceptibility is assumed when the ovicidal activity is over 70%, resistance when is lower than 40%, and a suspicion of resistance when activity is between these values at 0.5 μM.
# as §3
# Fasciola hepatica eggs = test system: Fasciola hepatica eggs; design: method as in PMID 19560276; details: other studies, cited from earlier work
# [4] = test system: Teladorsagia circumcincta eggs; details: read-out: 50% inhibitory concentration (IC50) in eggs by the EHT; T. circumcincta eggs; type I BZDs; cited from earlier work
# [5] = test system: Heligmosomoides polygyrus adults; design: method as in PMID 35804427; details: 10 µM; cited from earlier work
# Trichuris muris adults = test system: Trichuris muris adults; design: method as in PMID 35804427; details: 10 µM; cited from earlier work
# HepG2 cells = assay: Cytotoxicity assay, alamarBlue; assay type: cell-based, human
# Experimental: (§4) The effect of the BZDs on cell viability was assessed on a human hepatocarcinoma HepG2 (ATCC® HB-8065™, USA) cell line. Only compounds screened at a concentration of 10 µM were evaluated. The detailed protocol is described in a previous study carried out by our research group. Briefly, 10,000 cells were seeded on 96-well plates and incubated with different concentrations of the compounds ranging from 1 to 100 µM at 37 °C and 5% CO2. After 72 h of exposure, viability of the cells was assessed using the alamarBlue (Fisher Scientific®, Spain) staining method according to the manufacturer’s recommendations.
# (§5) The data are represented as mean ± standard error of media (SEM).
# [6] = test system: murine intestinal organoids; assay: Intestinal tolerability assay on murine intestinal organoids; assay type: cell-based, mouse; details: 25 µM
# Experimental: (§6) The murine intestinal organoid cultures were prepared following Stemcell Technologies™ protocols (https://www.stemcell.com/intestinal-epithelial-organoid-culture-with-intesticult-organoid-growth-medium-mouse-lp.html#protocols). Small intestine sections from C57BL/6 mice were excised, washed with ice-cold PBS, minced, and 2 mm segments were washed extensively. The segments were treated with Gentle Cell Dissociation Reagent (Stemcell Technologies™, Canada), resuspended in ice-cold PBS with 0.1% BSA and filtered. This process was repeated four times, resulting in four fractions. Cells from each fraction were centrifuged, washed, and resuspended in ice-cold DMEM/F12 supplemented with glutamine and HEPES 15 mM. Each fraction was mixed with Geltrex GFR LDEV-free (Gibco, Thermo Fisher Scientific, USA) and IntestiCult™ Organoid Grow Medium Mouse (Stemcell Technologies™, Canada), added to a 24-well plate and incubated at 37 °C for 10 min for matrix polymerization. The organoids were cultured in IntestiCult™ Organoid Grow Medium Mouse, with medium changes every 2 days and splitting after 7 days.
# (§7) For intestinal tolerability assays, selected hit compounds were tested in mouse intestinal organoids at 25 and 50 µM final concentrations. The protocol, based on a previous work, involved the addition of Gentle Cell Dissociation Reagent (Stemcell Technologies™, Canada) on matrix domes, the disruption of the matrix, and the incubation the suspension. After centrifugation, cells were resuspended in DMEM/F12 supplemented with glutamine and HEPES 15 mM and centrifugated again. The pellet was resuspended in a mix of Geltrex GFR LDEV-free and IntestiCult™ Organoid Grow Medium Mouse. The mix was plated in 384-well plates, and after 4 days, mature organoids were exposed to the compounds. The positive control was hydrogen peroxide (0.15% v/v), and the negative control was DMSO (0.2%). Viability after 72 h was assessed using the alamarBlue assay.
# Haemonchus contortus = details: sheep infected with Haemonchus contortus, 120 mg/kg; cited from earlier work
# [7] = Cytotoxicity assay, alamarBlue; assay type: cell-based, human; details: human, HepG2 cells; 72 h exposure, alamarBlue; read-out: CC50 Hep-G2
# Experimental: as §4, §5
# [8] = Intestinal tolerability assay on murine intestinal organoids; assay type: cell-based, mouse; details: C57BL/6, mouse, murine small-intestinal organoids, 72 h
# Experimental: as §6, §7
smiles,measurement,setting,value
"CCCSc1ccc2nc(NC(=O)OC)[nH]c2c1 [ABZ, albendazole, reference compound]",% Ovicidal activity resistant isolate,[1],36.5%
same,% Ovicidal activity resistant isolate,[1]; listed as ABZ (DD),36.46 ± 02.36%
same,reduction in the number of eggs in feces (FECRT),[2]; day 0 vs day 14,0%
same,survival rate of the adult flukes,[2]; necropsy 2 weeks after treatment,96.7%
same,% Ovicidal activity,[3]; ABZ at discriminant dose (DD) 0.5 µM,99.1% and 98%
same,% Ovicidal activity,"[3]; ABZ at discriminant dose (DD) 0.5 µM, listed as ABZ (DD)",99.01 ± 00.37% and 98.55 ± 00.41%
same,Lowest concentration able to reduce egg hatching,Fasciola hepatica eggs; in vitro,0.05 µM
Clc1ccc(-c2nc3cc(Cl)ccc3[nH]2)cc1 [BZD09],IC50,[4],6 µM
same,Inhibition of motility of Heligmosomoides polygyrus adults,[5],effectively inhibited the motility
same,% Ovicidal activity,"[3]; 50 µM, mean ± SEM",04.96 ± 1.22%
O=[N+]([O-])c1ccc2[nH]c(-c3ccc(Cl)cc3)nc2c1 [BZD15],Inhibition of Trichuris muris adult motility,Trichuris muris adults,inhibited Trichuris muris adult motility
same,% Ovicidal activity,"[3]; 50 µM, mean ± SEM",24.32 ± 10.58%
O=C(Nc1nc2cc(Cl)ccc2[nH]1)c1ccccn1 [BZD58],CC50,HepG2 cells,> 5 µM
same,% Viability in organoids,[6],100%
same,in vivo efficacy,Haemonchus contortus,95%
same,% Ovicidal activity,"[3]; 10 µM, mean ± SEM",around 50%
same,% Ovicidal activity,"[3]; 50 µM, mean ± SEM",higher than 80%
"CSc1nc2cc(Cl)c(Oc3cccc(Cl)c3Cl)cc2[nH]1 [TCBZ, triclabendazole, reference compound]",CC50 at 72 h,[7],> 50 µM
same,"viability at 72 h, 25 µM",[8]; 25 µM,~82%
same,"viability at 72 h, 50 µM",[8]; 50 µM,~1.5%
same,killing at 5 µM,"[3]; Fasciola hepatica, 5 µM, mean ± SEM, read-out: % Ovicidal activity susceptible isolate",≤ 2%
same,Effect on in vitro egg hatching,Fasciola hepatica eggs,did not affect in vitro egg hatching
